Data from PubChem BioAssay (NCI).
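Dose response: 5 concentrations. Exposure: 48 h. Format: 96-well plates. Endpoint: linear interpolation; highest concentration if not reached. TGI is the concentration that stops growth completely.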

Experiments:
Assay in all cases: NCI tumour cell line growth inhibition, 48 h
[1] = test system: 786-0 renal
[2] = test system: A498 renal
[3] = test system: A549 NSCLC
[4] = test system: ACHN renal
[5] = test system: BT-549 breast
[6] = test system: CAKI-1 renal
[7] = test system: CCRF-CEM leukemia
[8] = test system: COLO 205 colon
[9] = test system: DU-145 prostate
[10] = test system: EKVX NSCLC
[11] = test system: HCC-2998 colon
[12] = test system: HCT-116 colon
[13] = test system: HCT-15 colon
[14] = test system: HL-60(TB) leukemia
[15] = test system: HOP-62 NSCLC
[16] = test system: HS 578T breast
[17] = test system: HT29 colon
[18] = test system: IGROV1 ovarian
[19] = test system: K-562 leukemia
[20] = test system: KM12 colon
[21] = test system: LOX IMVI melanoma
[22] = test system: M14 melanoma
[23] = test system: MALME-3M melanoma
[24] = test system: MCF7 breast
[25] = test system: MDA-MB-231 breast
[26] = test system: MDA-MB-435
[27] = test system: MDA-N
[28] = test system: MOLT-4 leukemia
[29] = test system: NCI-H226 lung
[30] = test system: NCI-H23 lung
[31] = test system: NCI-H460 lung
[32] = test system: NCI-H522 lung
[33] = test system: NCI/ADR-RES ovarian
[34] = test system: OVCAR-3 ovarian
[35] = test system: OVCAR-4 ovarian
[36] = test system: OVCAR-5 ovarian
[37] = test system: OVCAR-8 ovarian
[38] = test system: PC-3 prostate
[39] = test system: RPMI-8226 leukemia
[40] = test system: RXF 393 renal
[41] = test system: SF-268 CNS
[42] = test system: SF-295 CNS
[43] = test system: SF-539 CNS
[44] = test system: SK-MEL-2 melanoma
[45] = test system: SK-MEL-28 melanoma
[46] = test system: SK-MEL-5 melanoma
[47] = test system: SK-OV-3 ovarian
[48] = test system: SN12C renal
[49] = test system: SNB-19 CNS
[50] = test system: SNB-75 CNS
[51] = test system: SR leukemia
[52] = test system: SW-620 colon
[53] = test system: T-47D breast
[54] = test system: TK-10 renal
[55] = test system: U251 CNS
[56] = test system: UACC-257 melanoma
[57] = test system: UACC-62 melanoma
[58] = test system: UO-31 renal
[59] = test system: HOP-92 NSCLC

## S=C(Nc1ccccn1)Nc1ccccc1Cl
[1]
  TGI: > 100 µM
[2]
  TGI: > 100 µM
[3]
  TGI: > 100 µM
[4]
  TGI: > 100 µM
[5]
  TGI: > 100 µM
[6]
  TGI: > 100 µM
[7]
  TGI: > 100 µM
[8]
  TGI: > 100 µM
[9]
  TGI: > 100 µM
[10]
  TGI: > 55.9 µM
[11]
  TGI: > 100 µM
[12]
  TGI: > 100 µM
[13]
  TGI: > 100 µM
[14]
  TGI: > 100 µM
[15]
  TGI: > 100 µM
[16]
  TGI: > 52.2 µM
[17]
  TGI: > 100 µM
[18]
  TGI: > 67 µM
[19]
  TGI: > 100 µM
[20]
  TGI: > 83.4 µM
[21]
  TGI: > 100 µM
[22]
  TGI: > 100 µM
[23]
  TGI: > 79.5 µM
[24]
  TGI: > 100 µM
[25]
  TGI: > 100 µM
[26]
  TGI: > 100 µM
[27]
  TGI: > 100 µM
[28]
  TGI: > 100 µM
[29]
  TGI: > 100 µM
[30]
  TGI: > 100 µM
[31]
  TGI: > 100 µM
[32]
  TGI: 37.9 µM
[33]
  TGI: > 100 µM
[34]
  TGI: > 100 µM
[35]
  TGI: > 100 µM
[36]
  TGI: > 100 µM
[37]
  TGI: > 100 µM
[38]
  TGI: > 100 µM
[39]
  TGI: > 100 µM
[40]
  TGI: > 100 µM
[41]
  TGI: > 78 µM
[42]
  TGI: > 100 µM
[43]
  TGI: > 100 µM
[44]
  TGI: > 100 µM
[45]
  TGI: > 100 µM
[46]
  TGI: > 100 µM
[47]
  TGI: > 100 µM
[48]
  TGI: > 100 µM
[49]
  TGI: > 31.6 µM
[50]
  TGI: > 80.4 µM
[51]
  TGI: > 100 µM
[52]
  TGI: > 100 µM
[53]
  TGI: > 100 µM
[54]
  TGI: > 100 µM
[55]
  TGI: > 100 µM
[56]
  TGI: > 100 µM
[57]
  TGI: > 100 µM
[58]
  TGI: > 100 µM

## Cc1ccc(S(=O)(=O)N2CCNCCN(S(=O)(=O)c3ccc(C)cc3)CCN(S(=O)(=O)c3ccc(C)cc3)CC2)cc1
[1]
  TGI: > 100 µM
[2]
  TGI: > 100 µM
[3]
  TGI: > 100 µM
[4]
  TGI: > 100 µM
[5]
  TGI: > 100 µM
[6]
  TGI: > 100 µM
[7]
  TGI: > 100 µM
[8]
  TGI: > 100 µM
[9]
  TGI: > 100 µM
[10]
  TGI: > 100 µM
[11]
  TGI: > 100 µM
[12]
  TGI: > 100 µM
[13]
  TGI: > 100 µM
[14]
  TGI: > 100 µM
[15]
  TGI: > 100 µM
[59]
  TGI: > 100 µM
[16]
  TGI: > 100 µM
[17]
  TGI: > 100 µM
[18]
  TGI: > 100 µM
[19]
  TGI: > 100 µM
[20]
  TGI: > 100 µM
[21]
  TGI: > 100 µM
[22]
  TGI: > 100 µM
[23]
  TGI: > 100 µM
[24]
  TGI: > 100 µM
[25]
  TGI: > 100 µM
[26]
  TGI: > 100 µM
[27]
  TGI: > 100 µM
[28]
  TGI: > 100 µM
[29]
  TGI: > 100 µM
[30]
  TGI: > 100 µM
[31]
  TGI: > 100 µM
[32]
  TGI: > 100 µM
[33]
  TGI: > 100 µM
[34]
  TGI: > 100 µM
[35]
  TGI: > 100 µM
[36]
  TGI: > 100 µM
[37]
  TGI: > 100 µM
[38]
  TGI: > 100 µM
[39]
  TGI: > 100 µM
[40]
  TGI: > 100 µM
[41]
  TGI: > 100 µM
[42]
  TGI: > 100 µM
[43]
  TGI: > 100 µM
[44]
  TGI: > 100 µM
[45]
  TGI: > 100 µM
[46]
  TGI: > 100 µM
[47]
  TGI: > 100 µM
[48]
  TGI: > 100 µM
[49]
  TGI: > 100 µM
[50]
  TGI: > 100 µM
[51]
  TGI: > 100 µM
[52]
  TGI: > 100 µM
[53]
  TGI: > 100 µM
[54]
  TGI: > 100 µM
[55]
  TGI: > 100 µM
[56]
  TGI: > 100 µM
[57]
  TGI: > 100 µM
[58]
  TGI: > 100 µM
